Tests used:
Assay type in all cases: biochemical, Saccharomyces cerevisiae
α-glucosidase [1] = assay: α-glucosidase inhibition assay (PNPG substrate, OD 405 nm); conditions: for Inhibition rate: compound at 250 μM, 0.07 U/ml enzyme, 0.5 mM PNPG, pH 6.8, 37 °C; for IC50: more than eight concentrations, GraphPad Prism 7.0; for α-glucosidase inhibitory activity (in words): SAR discussion
Protocol: The α-glucosidase inhibitory activity was determined on a Thermo Scientific Multiskan GO Microplate Reader. All compounds were dissolved in DMSO. p-Nitrophenol glucoside (PNPG) as a substrate and α-glucosidase (from Saccharomyces cerevisiae) were used for the bioassay. First, 0.7 U/ml α-glucosidase solution and 1 mmol/L PNPG solution in 0.1 M PBS (pH 6.8) were prepared. Next, 35 µl of 0.1 M PBS (pH 6.8), 10 µl of 0.7 U/ml α-glucosidase solution (final concentration: 0.07 U/ml), and 5 µl of sample solution were added to the 96-well plate. The mixture was pre-incubated for 10 min at 37 °C. Then, 50 µl of 1 mM PNPG (final concentration: 0.5 mM) was rapidly added to initiate the reaction. Then the 96-well plate was quickly transferred into the microplate reader, incubated at 37 °C for 30 min (1 min shake + 9 min incubation, repeated 3 times). After that, 50 µl of 1 M of Na2CO3 solution was added to each well to stop the reaction. The 96-well plate was quickly transferred into the microplate reader and shaken for 30 s. In the blank reference group, 5 µl DMSO replaced the sample solution, other operations were the same. The OD value was measured at 405 nm. The inhibition rate was calculated by Equation (1). (1) Inhibition rate (%) = [(A0−A1)/A0] × 100 where A0 is the OD of the control, and A1 is the OD of the sample. […] The IC50 values were calculated by GraphPad Prism 7.0 software.

α-glucosidase [2] = assay: Enzyme kinetic study, Lineweaver–Burk double-reciprocal plots; conditions: for Inhibition type: Lineweaver–Burk plots, PNPG 0.2-1 mM, enzyme 0.7 U/ml; for Ki: from plot of slope (Km/Vm) versus inhibitor concentration, PNPG substrate, read-out: Ki value (inhibitor binding with free enzyme)
Protocol: The inhibition type of the enzyme was assayed by Lineweaver–Burk plots. A series of diluted inhibitor solutions was prepared, at constant α-glucosidase concentration (0.7 U/ml). The inhibition rates were measured by the above method with different concentrations of PNPG (1, 0.5, 0.4, 0.3, 0.25, and 0.2 mM). […] The kinetic data were expressed by Lineweaver–Burk double-reciprocal plots. […] Thus, these compounds bind not only with the free α-glucosidase but also with the α-glucosidase-PNPG complex. In other words, they inhibit the function of α-glucosidase by not only directly binding to free enzyme (EI), but also by interfering with the formation of the α-glucosidase-PNPG (ES) intermediate through producing an α-glucosidase-PNPG-inhibitor (ESI) complex in a non-competitive manner. The inhibition constant for the inhibitor binding with free enzyme (Ki) was determined from a plot of the slope (Km/Vm) versus the inhibitor concentration (Figure 6(A2–D2)), and the inhibition constant for the inhibitor binding with enzyme–substrate complex (Kis) was obtained from the vertical intercept (1/Vm) versus the inhibitor concentration (Figure 6(A3–D3))[34]. The results are collected in Table 3: the Kis values of all of them are smaller than their Ki values, which mean that they have higher affinity with the enzyme-substrate complex than with the free enzyme.

α-glucosidase [3] = assay: Inhibition mechanism: enzyme activity versus enzyme concentration plots; conditions: constant PNPG 1 mM; α-glucosidase 0.00-1.05 U/ml
Protocol: The inhibition mechanism of 10d, 12d, and 15d was determined by the following method: A series of diluted inhibitor solutions was prepared, at constant PNPG concentration (1 mM). The inhibition rates were measured by the above method with different concentrations of α-glucosidase (0.00, 0.35, 0.7, and 1.05 U/ml). […] Because the chemical structures of compounds 9d and 10d are very similar, compound 10d was selected as a representative in the next mechanism studies. The inhibition mechanism of the selected compounds 10d, 12d, 15d, and embelin on α-glucosidase was investigated using PNPG as the substrate. The relationship between enzyme activity and concentration in the presence of different concentrations of selected compounds was studied. […] Therefore, the inhibition of compounds 10d, 12d, 15d, and embelin against α-glucosidase is reversible.

Compound	Inhibition rate (α-glucosidase [1]) [%]	other results
CCCCCCCCCCCC1=C(O)C(=O)C=C(O)C1=O [Embelin, 2,5-dihydroxy-3-undecyl-1,4-benzoquinone]	100	IC50 (α-glucosidase [1]): 4.2 µM; Inhibition type (α-glucosidase [2]): Mixed-type; Ki (α-glucosidase [2]): 3.72 µM; Inhibition mechanism (reversibility) (α-glucosidase [3]): reversible
COC1=CC(=O)C(=O)C(CCC(C)C)=C1OC [Compound 11c]	3.3	
CCCCCC1=C(OC)C(OC)=CC(=O)C1=O [Compound 5c]	16.4	
CCCCCCCCCCCCCC1=C(O)C(=O)C=C(O)C1=O [Compound 9d]	100	IC50 (α-glucosidase [1]): 2.3 µM
COCCCC1=C(O)C(=O)C=C(OC)C1=O [Compound 13b]	0	
CCCCCCCC1=C(OC)C(OC)=CC(=O)C1=O [Compound 6c]	16.1	
CCCCCCCCCCCCCCCC1=C(O)C(=O)C=C(O)C1=O [Compound 10d]	100	IC50 (α-glucosidase [1]): 1.8 µM; Inhibition type (α-glucosidase [2]): Mixed-type; Ki (α-glucosidase [2]): 1.24 µM; Inhibition mechanism (reversibility) (α-glucosidase [3]): reversible
CCCCCCCCCC1=C(OC)C(OC)=CC(=O)C1=O [Compound 7c]	33.2	
COC1=CC(=O)C(OC)=C(Cc2ccc(-c3ccccc3)cc2)C1=O [Compound 17a]	5.1	
CCCC1=C(OC)C(OC)=CC(=O)C1=O [Compound 4c]	14.9	
COC1=CC(=O)C(=O)C(Cc2ccc(-c3ccccc3)cc2)=C1OC [Compound 17c]	59.7	
CC(C)CCCC(C)CCC1=C(O)C(=O)C=C(O)C1=O (centres unmarked) [Compound 12d]	100	IC50 (α-glucosidase [1]): 3.3 µM; Inhibition type (α-glucosidase [2]): Mixed-type; Ki (α-glucosidase [2]): 3.71 µM; Inhibition mechanism (reversibility) (α-glucosidase [3]): reversible
COC1=CC(=O)C(OC)=C(Cc2ccc3ccccc3c2)C1=O [Compound 16a]	6.0	
COCCCC1=C(O)C(=O)C=C(O)C1=O [Compound 13d]	0	
CCCCCCCC1=C(O)C(=O)C=C(OC)C1=O [Compound 6b]	5.4	
O=C1C=C(O)C(=O)C(CCC2CCCCC2)=C1O [Compound 14d]	85.2	IC50 (α-glucosidase [1]): 45.3 µM
CCCCCCCC1=C(O)C(=O)C=C(O)C1=O [Compound 6d]	80.8	IC50 (α-glucosidase [1]): 127 µM
CCCC1=C(OC)C(=O)C=C(OC)C1=O [Compound 4a]	9.0	
CCCCCCCCCCCC1=C(O)C(=O)C=C(OC)C1=O [Compound 8b]	12.0	
CCCCCCCCCCCC1=C(OC)C(OC)=CC(=O)C1=O [Compound 8c]	0.6	
CCCC1=C(O)C(=O)C=C(O)C1=O [Compound 4d]	18.1	α-glucosidase inhibitory activity (in words) (α-glucosidase [1]): very low inhibitory effect
COC1=CC(=O)C(OC)=C(CCC2CCCCC2)C1=O [Compound 14a]	70.1	

Compound	Inhibition rate (α-glucosidase [1]) [%]	other results
O=C1C=C(O)C(=O)C(CCCCCCCc2ccccc2)=C1O [Compound 15d]	100	IC50 (α-glucosidase [1]): 3.6 µM; Inhibition type (α-glucosidase [2]): Mixed-type; Ki (α-glucosidase [2]): 2.4 µM; Inhibition mechanism (reversibility) (α-glucosidase [3]): reversible
CC(C)CCC1=C(O)C(=O)C=C(O)C1=O [Compound 11d]	37.6	
COC1=CC(=O)C(O)=C(CCC(C)C)C1=O [Compound 11b]	2.6	
COCCCC1=C(OC)C(=O)C=C(OC)C1=O [Compound 13a]	0	
CCCCCCCCCCCC1=C(OC)C(=O)C=C(OC)C1=O [Compound 8a]	12.5	
CCCCCC1=C(OC)C(=O)C=C(OC)C1=O [Compound 5a]	11.5	
COC1=CC(=O)C(=O)C(Cc2ccc3ccccc3c2)=C1OC [Compound 16c]	37.2	
COC1=CC(=O)C(=O)C(CCC2CCCCC2)=C1OC [Compound 14c]	74.7	
CCCCCC1=C(O)C(=O)C=C(OC)C1=O [Compound 5b]	14.9	
COC1=CC(=O)C(O)=C(Cc2ccc3ccccc3c2)C1=O [Compound 16b]	4.3	
COCCCC1=C(OC)C(OC)=CC(=O)C1=O [Compound 13c]	0	
COC1=CC(=O)C(OC)=C(CCC(C)C)C1=O [Compound 11a]	1.5	
CCCCCC1=C(O)C(=O)C=C(O)C1=O [Compound 5d]	19.0	α-glucosidase inhibitory activity (in words) (α-glucosidase [1]): very low inhibitory effect
CCCCCCCCCC1=C(OC)C(=O)C=C(OC)C1=O [Compound 7a]	13.5	
CCCC1=C(O)C(=O)C=C(OC)C1=O [Compound 4b]	10.4	
O=C1C=C(O)C(=O)C(Cc2ccc(-c3ccccc3)cc2)=C1O [Compound 17d]	99.5	IC50 (α-glucosidase [1]): 11.2 µM
COC1=CC(=O)C(O)=C(Cc2ccc(-c3ccccc3)cc2)C1=O [Compound 17b]	14.3	
CCCCCCCCCC1=C(O)C(=O)C=C(O)C1=O [Compound 7d]	99.4	IC50 (α-glucosidase [1]): 5.7 µM
CCCCCCCC1=C(OC)C(=O)C=C(OC)C1=O [Compound 6a]	1.5	
CCCCCCCCCC1=C(O)C(=O)C=C(OC)C1=O [Compound 7b]	20.9	
COC1=CC(=O)C(O)=C(CCC2CCCCC2)C1=O [Compound 14b]	71.1	
O=C1C=C(O)C(=O)C(Cc2ccc3ccccc3c2)=C1O [Compound 16d]	81.4	IC50 (α-glucosidase [1]): 74.8 µM

Source: publication PMC7006637, “Design, synthesis and α-glucosidase inhibition study of novel embelin derivatives” (Journal of Enzyme Inhibition and Medicinal Chemistry, 2020)
